Measured values published in patent publication US6979675B2, “Treatment of cancer with 2-deoxyglucose” (Threshold Pharmaceuticals, Inc., priority 2003, dated 2005).
Where two headings read alike, the source gives them in different places.

Tests used:
[1] = for deaths: bid×5
Protocol: (§1) The maximum tolerated dose determination for this study was conducted using female nude mice (nu/nu) between 5 and 6 weeks of age weighing approximately 20 g (Harlan, Inc., Madison, Wis.). Dosing began on Day 1. […] A 20 mL/kg dose volume was used to achieve doses of 2000, 4000, 6000, 8000, and 9000 mg/kg/dose. Individual mouse weights in grams were recorded twice weekly throughout the study. The average weight per group was calculated, and weight gain or loss was determined by comparing the current Day's average to the Day 1 average for that same group. The study was terminated on Day 21.

HT-29 colon carcinoma = assay: MTS growth inhibition assay, single agent studies; type: cell-based; details: Homo sapiens, HT-29, 72 h, 3 days in culture
Protocol: (§2) Human tumor cell lines MiaPaCa-2 pancreatic carcinoma (mutant ras, gemcitabine sensitive) and HT-29 colon carcinoma (polyposis type, mutant p53 and APC, chemosensitive) were purchased from the ATCC (Rockville, Md.). […] Cells grown to 70% confluency were trypsinized and resuspended into cell culture medium at a concentration of 10^5 cells/ml. On Day 0 of the experiment, a […] aliquot of tumor cells was plated into internal wells of a 96-well microtiter plate at an appropriate density (in the range of 2×10^3 to 10^4 cells/well). The cells were incubated for 24 hours to allow maximum adhesion prior to exposure with test agents. […] The starting concentration and the test range of 5-FU were determined empirically for each cell line. Treatment with 5-FU started on Day 1. There were 6 replicates for each dose determination. Both drugs were added once without the medium change. After 3 days in culture, the number of proliferating cells was measured by the MTS assay described below. The test was repeated twice to quantify growth inhibitory activity. […] IC50 values were generated from two separate experiments. […] The MTS reagent is a tetrazolium compound and an electron coupling reagent. The MTS tetrazolium compound is bioreduced by cells into a colored formazan product soluble in cell culture medium. The conversion is catalyzed by NADPH or NADH produced by dehydrogenase enzymes in metabolically active cells. The MTS assay is a colorimetic assay based upon the ability of viable cells to convert […] to formazan; the quantity of formazan product, as measured by the 490 nm absorbance, is directly proportional to the number of viable cells in culture. An automated procedure determines the IC50 value. Exponentially growing cells in […] of cell culture medium are plated on Day 0 in 96-well microtiter plates at a concentration of 10^4 cells/well. […] At the end of the designated time period, 100 microL of growth medium is removed. […] Absorbance is documented on a Dynex HD microplate reader at a wavelength of 490 nm. The data was calculated as percent growth inhibition, wherein 0% represents the mean value in wells to which only vehicle (cell culture medium) was added. The % Growth Inhibition was calculated as follows: % Growth Inhibition=(1−(ODtest/ODvehicle)×100, where ODtest is the optical density of the tested sample, and ODvehicle is the optical density of the vehicle in which each respective drug is dissolved. […] To determine the interaction, there must be a significant difference that exists between the combination absorbance values and both endpoint values. For example, if the values are statistically (p<0.05) above or below the absorbance values of either agent tested alone, then antagonism or synergy is described. […]

[2] = system: MiaPaCa-2 pancreatic carcinoma; assay: MTS growth inhibition assay, single agent studies; type: cell-based; details: Homo sapiens, MIA PaCa-2, 72 h, 3 days in culture
Protocol: as §2

[3] = dog, in vivo
[4] = system: human non-small cell lung cancer (NSCLC) tumor cell lines; assay: Proliferation with simultaneous 2-DG and Taxol treatment; type: cell-based
[5] = system: MV522 human tumor carcinomas; assay: Tumor growth delay study in mouse MV522 xenograft model (TH-PT-001)
Protocol: Female nude mice (nu/nu) between 5 and 6 weeks of age and weighing approximately 20 g were obtained from Harlan, Inc. (Madison, Wis.). Animals were implanted subcutaneously by trocar with fragments of Mv522 human tumor carcinomas harvested from subcutaneously growing tumors in nude mice hosts. When the tumors were approximately 71 mg in size (11 days following inoculation), the animals were pair-matched into treatment and control groups. Each group contained 10 tumored mice. Each mouse was ear-tagged and followed individually throughout the experiment. Initial doses were given on Day 1 following pair-matching. […] Sterile water was administered orally bid×5 to end to serve as the negative control. Mice were weighed twice weekly, and tumor measurements were obtained using calipers twice weekly, starting on Day 1. These tumor measurements were converted to mg tumor weight by the standard formula (W^2×L)/2. Each mouse was sacrificed when its tumor weight reached 1000 mg. In this test, the average day of sacrifice was determined for all groups and the tumor growth delay (TGD) for each treatment group, compared to the control group, was calculated.
All of these studies are outlined in the following table.

[6] = rat, in vivo
MV522 xenograft = assay: 2-DG/Paclitaxel dosing study in mouse MV522 xenograft model; type: in vivo
Protocol: The mouse MV522 xenograft model substantially as described in Example 2 was used to compare the effects of dosing 2-DG orally (in water) either at a single dose of 4 g/kg or in multiple doses (twice a day at 2 g/kg) in various combinations with paclitaxel dosed i.p. as a single dose (30 mg/kg) or in multiple doses (once daily at 10 mg/kg).

MV522 cells = assay: Sulforhodamine B (SRB) growth inhibition assay; type: cell-based; details: Homo sapiens, 72 hours treatment
Protocol: (§3) The human lung tumor cell lines were MV522 and NCI-H23, both of which were derived from tumors displaying histopathology of adenocarcinoma, one of the at least three types of NSCLC. The NCI-H23 tumor cell line is available from the ATCC (Rockville, Md.), and the MV522 cell line was obtained by Dr. M. J. Kelner of the University of California. The cells were cultured in RPMI medium (Nova Tech, Grand Island, N.Y.) at 37° C. in a humidified atmosphere containing 5% CO2. For passaging, cells grown in 75 cm^2 flasks (60–70% confluency) were washed with PBS and dislodged from the flasks with trypsin (Gibco BRL) before being passaged. Cells used for the experiments described below were centrifuged and resuspended in cell culture medium at a concentration of 10^5 cells/mL. A 100 microliter aliquot (ten thousand cells) was plated into each well of a 96-well microtiter plate.
(§4) Docetaxel (Taxotere™, Aventis Pharmaceuticals, Inc.) solubilized in 100% DMSO and diluted 1000×to the desired concentration (0.1% DMSO final concentration), was used as a positive control. […] Exponentially growing cells in 100 microliters of cell culture medium were plated on Day 0 in 96-well microtiter plates at a concentration of 10^4 cells/well. On Day 1, drugs were added to each well of the microtiter plate with the designated concentration in 100 microliter aliquots of cell culture medium and incubated at 37° C. in a humidified incubator (5% CO2/95% HEPA filtered air). After three days of treatment, adherent cells were fixed by adding 50 microliters of cold 50% trichloracetic acid to each well and incubating for one hour at 4° C. The supernatant was discarded, and plates were washed twice with de-ionized water and air-dried. One hundred microliters of SRB solution were added to each well of the plate and incubated ten minutes at room temperature. Unbound SRB stain was removed by washing twice with 1% acetic acid. The bound SRB stain was solubilized with 10 mM Tris buffer, and the optical densities read at a single wavelength of 515 nm.
(§5) IC50 values (50% effective dose) were calculated from two different experiments, each of which involved 6 replicates for each dose tested. […]

NCI-H23 cells = assay: Sulforhodamine B (SRB) growth inhibition assay; type: cell-based; details: Homo sapiens, 72 hours treatment
Protocol: as §3, §4, §5

[7] = MTD study of combined 2-DG/cisplatin treatment versus cisplatin alone (TH-PT-002); details: cisplatin 2, 3, or 4 mg/kg/dose i.p. qd Days 6–10 with or without 2-DG 2000 mg/kg/dose oral qd days 1–10
Protocol: as §1, with “A 20 mL/kg dose volume was used to achieve doses of 2000, 4000, 6000, 8000, and 9000 mg/kg/dose.” left out

[8] = system: H460, H23, H522 and H661 cells; assay: Inhibition of proliferation of NSCLC tumor cell lines; type: cell-based; details: most human NSCLC tumor cell lines
H2347 cells = assay: Inhibition of proliferation of Taxol-resistant cell line; type: cell-based; details: Homo sapiens, NCI-H2347
[9] = system: MV522 non-small cell lung cancer (NSCLC) xenograft; assay: Third efficacy study, paclitaxel alone or with oral 2-DG, tumor growth delay (TH-PT-003); type: in vivo, nude mice; details: paclitaxel alone 10 mg/kg/dose i.p. days 6–10
Protocol: An increase in efficacy was defined as a significant (P<0.05) increase in the time for the tumor to grow to 1000 mg (tumor growth delay—TGD) compared to vehicle alone or, for combination treatment groups, chemotherapy alone, as calculated using a two-tailed t-test. Female nude mice, ten per treatment arm, were implanted subcutaneously (s.c.) with trocar fragments of MV522 tumors harvested from s.c. tumors growing in nude mice hosts. Body weights and tumor measurements were taken biweekly. When tumors reached ˜70 mg, treatment was started. Mice were sacrificed when their individual tumor reached ˜1000 mg. All doses are reported as mg/kg/dose. […] The mice were then dosed i.p. with 10 mg/kg/dose paclitaxel once a day on days 6–10. […] Dosing with paclitaxel began when the tumors were approximately 200 mg.

O=CC[C@@H](O)[C@H](O)[C@H](O)CO [2-DG, 2-deoxy-D-glucose]
deaths ([1]; 6000 mg/kg/dose group): One mouse died
deaths ([1]; 8000 and 9000 mg/kg/dose groups): All 5 mice died
maximum tolerated dose (MTD) ([1]; mouse, in vivo): 4000 mg/kg/dose
IC50 (HT-29 colon carcinoma; 11 mM glucose medium): 9830 µM
IC50 ([2]; 11 mM glucose medium): 2620 µM
visible signs of toxicity, multiple dose (5-day) [3]: no visible signs of toxicity
tolerability, single oral doses ([3]; po): well tolerated
toxicity, single oral dose ([3]; po, 1 h): emesis at 1 hour but no other visible toxicity
effect on proliferation ([4]; 1 mM 2-DG by itself): no effect on proliferation by itself
tumor growth rate ([5]; 2-DG single agent 0–2000 mg/kg/dose, twice a day): did not slow the tumor growth rate
mean day of sacrifice ([5]; 2-DG single agent 750 mg/kg p.o. bid×5 to end): 28.9+/−3.7
mean day of sacrifice ([5]; 2-DG single agent 1000 mg/kg p.o. (Days 1–14 dose 50 mg/kg) bid×5 to end): 27.2+/−2.7
mean day of sacrifice ([5]; 2-DG single agent 1500 mg/kg p.o. (Days 1–14 dose 150 mg/kg) bid×5 to end): 28.2+/−4.6
mean day of sacrifice ([5]; 2-DG single agent 2000 mg/kg p.o. (Days 1–14 dose 400 mg/kg) bid×5 to end): 29.4+/−3.1
toxic deaths ([5]; 2-DG single agent groups): no toxic deaths
weight loss ([5]; mouse, in vivo): little weight loss
visible signs of toxicity, multiple dose (5-day) [6]: no visible signs of toxicity
toxicity, single oral dose ([6]; po): non-toxic
tumor growth (MV522 xenograft; 2-DG alone, oral, 10 days of dosing more effective than 5): small delay in tumor growth
IC50 (MV522 cells): 3740 ± 740 µM
IC50 (NCI-H23 cells): 1860 ± 532 µM

O=c1[nH]cc(F)c(=O)[nH]1 [5-FU, 5-fluoro-2,4(1H,3H)-pyrimidinedione, reference compound]
IC50 (HT-29 colon carcinoma): 1.9 µg/mL
IC50 [2]: 2.58 µg/mL

CC(=O)O[C@@]12CO[C@@H]1C[C@H](O)[C@@]1(C)C(=O)[C@H](O)C3=C(C)[C@@H](OC(=O)[C@H](O)[C@@H](NC(=O)OC(C)(C)C)c4ccccc4)C[C@@](O)([C@@H](OC(=O)c4ccccc4)[C@H]21)C3(C)C [Docetaxel, reference compound]
IC50 (MV522 cells): 0.00211 ± 0.000601 µM
IC50 (NCI-H23 cells): 0.00164 ± 0.000211 µM

N.N.[Cl][Pt][Cl] [cisplatin, cis-Diaminedichloroplatinum (II)]
deaths during the 21 days of the study [7]: No mice died
TGD (tumor growth delay) ([5]; cisplatin 1 mg/kg i.p. Days 1–5): 15.8 days
TGD (tumor growth delay) ([5]; cisplatin 2 mg/kg i.p. Days 1–5): 32.6 days
mean day of sacrifice ([5]; cisplatin single agent 1 mg/kg i.p. Days 1–5): 42.3+/−0.9
mean day of sacrifice ([5]; cisplatin single agent 2 mg/kg i.p. Days 1–5): 59.1+/−5.7
complete regressions ([5]; high dose cisplatin group (2 mg/kg), 10 mice): Two mice

CC(=O)O[C@H]1C(=O)[C@@]2(C)[C@H]([C@H](OC(=O)c3ccccc3)[C@]3(O)C[C@H](OC(=O)[C@H](O)[C@@H](NC(=O)c4ccccc4)c4ccccc4)C(C)=C1C3(C)C)[C@]1(OC(C)=O)CO[C@@H]1C[C@@H]2O [paclitaxel]
IC50 [8]: 0.05 to 0.2 µM
inhibition of proliferation ([4]; 200 nM Taxol alone, one test): ~20%
toxic deaths ([5]; paclitaxel 16 mg/kg i.p. Days 1–5): no toxic deaths
complete regression ([5]; paclitaxel 16 mg/kg i.p. Days 1–5, 10 mice): one mouse experiencing a complete regression
mean day of sacrifice ([5]; paclitaxel 16 mg/kg i.p. Days 1–5, sacrifice at tumor weight 1000 mg): 56.8+/−4.3
TGD (tumor growth delay) ([5]; paclitaxel 16 mg/kg i.p. Days 1–5, vs negative control): 34.4 days
IC50 (H2347 cells): > 1 µM
efficacy of single dose 30 mg/kg versus 5 doses at 10 mg/kg (MV522 xenograft; paclitaxel i.p.): more effective
deaths [9]: One death per group
